In patent US20220347175A1, “PYRIDAZINONE DERIVATIVE” (Sumitomo Dainippon Pharma Co., Ltd., priority 2018, published 2022):

Target: T1, human Nav1.1 (Homo sapiens, UniProt P35498)
T1 construct: host or cells: HEK293
Assay: Amplification of Nav1.1-derived voltage-dependent sodium current (Nav1.1 current), cell line stably expressing human Nav1.1, automated patch clamp
Format: cell-based
Conditions: 10 μmol/L compound (Test Result 5); for activation at 10 µM: read-out: Nav1.1 current amplification rate (%)
Description: Test 1: Evaluation of the Amplification of Nav1.1-Derived Voltage-Dependent Sodium Current (Nav1.1 Current) by Using a Cell Line Stably Expressing Human Nav1.1
(1) Preparation of Test Compounds
Test compounds were prepared by dissolving in DMSO at 200 times of the concentration at evaluation, and diluting the obtained solution to twice the concentration of evaluation with an extracellular fluid (135 mmol/L NaCl, 4 mmol/L KCl, 1 mmol/L MgCl2, 5 mmol/L CaCl2, 5 mmol/L Glucose, 10 mmol/L HEPES).
(2) Induction and Measurement of Nav1.1 Current
A HEK293 cell line stably expressing human Nav1.1 (cat #CYL3009, Millipore, USA, Human Embryonic Kidney 293) was purchased, and used in the present test. Nav1.1 current was induced by stimulating Ramp wave voltage. Detection of current which accompanied with the stimulation of voltage was carried out by a patch-clamp voltage-clamp method using HTS automated patch clamp system (SynchroPatch 768PE, Nanion Technologies GmbH, Germany). Only cells with more than 500 pA of voltage-dependent sodium channel current were used for the evaluation of the activity of compounds on Nav1.1 current because there was the possibility that currents derived from endogenous voltage-dependent sodium channels accounted for large proportion in cells with less than 500 pA of voltage-dependent sodium channel current which was induced by stimulating Ramp wave voltage.
(3) Pharmacologic Effect on Nav1.1 Current
The effect of test compounds on the amplification of Nav1.1-derived voltage-dependent sodium current was evaluated by using a cell line stably expressing human Nav1.1 and HTS automated patch clamp system. In other words, test compounds were added in an extracellular fluid containing 1% DMSO, and evaluated as a change of the peak value of Nav1.1 current and the area under the curve (AUC).
(4) Method for Pharmacological Evaluation
The Nav1.1 current amplification rates of test compounds were calculated by the following formula:
Nav1.1 current amplification rate (%)=100×[the peak value of Nav1.1 current or the area under the curve after the addition of test compounds]/[the peak value of Nav1.1 current or the area under the curve before the addition of test compounds]−100

SMILES | Nav1.1 current amplification rate (%) | activation at 10 µM
CC1CC(C)CN(c2ccc(=O)n(CC(=O)Nc3ccc(C#N)cc3)n2)C1 (stereo not shown) [Example 14] | 9% | –
CC1CC(C)CN(c2ccc(=O)n(CC(=O)Nc3ccc(C#N)cc3)n2)C1 (stereo not shown) [Example 15] | 10% | –
N#Cc1ccc(NC(=O)Cn2nc(N3CCCC(C(F)(F)F)C3)ccc2=O)cc1 (stereo not shown) [Example 16] | 59% | –
N#Cc1ccc(NC(=O)Cn2nc(N3CCC4(CC3)CC4)ccc2=O)cc1 [Example 17] | 212% | –
N#Cc1ccc(NC(=O)Cn2nc(N3CC4CC4C3)ccc2=O)cc1 (stereo not shown) [Example 18] | 11% | –
CC1CCN(c2ccc(=O)n(CC(=O)Nc3ccc(C#N)cc3)n2)C1 (stereo not shown) [Example 19] | 98% | –
N#Cc1ccc(NC(=O)Cn2nc(N3CCCC4(CC4)C3)ccc2=O)cc1 [Example 20] | 152% | –
CC1(C)CCN(c2ccc(=O)n(CC(=O)Nc3ccc(C#N)cc3)n2)C1 [Example 21] | 130% | –
CC1(C)CCCN(c2ccc(=O)n(CC(=O)Nc3ccc(C#N)cc3)n2)C1 [Example 22] | 110% | –
N#Cc1ccc(NC(=O)Cn2nc(N3CCC4(CCCC4)C3)ccc2=O)cc1 [Example 24] | 286% | –
N#Cc1ccc(NC(=O)Cn2nc(N3CCC4(CC4)C3)ccc2=O)cc1 [Example 25] | 163% | –
N#Cc1ccc(NC(=O)Cn2nc(N3CCC4(CCC4)CC3)ccc2=O)cc1 [Example 26] | 364% | –
N#Cc1ccc(NC(=O)Cn2nc(N3CCC4(CC3)COC4)ccc2=O)cc1 [Example 27] | 5% | –
CCC1(C)CCN(c2ccc(=O)n(CC(=O)Nc3ccc(C#N)cc3)n2)CC1 [Example 28] | 158% | –
N#Cc1ccc(NC(=O)Cn2nc(N3CCC4(CCCO4)CC3)ccc2=O)cc1 [Example 29] | 20% | –
CCCCN(C)c1ccc(=O)n(CC(=O)Nc2ccc(C#N)cc2)n1 [Example 30] | 77% | –

SMILES | Nav1.1 current amplification rate (%) | activation at 10 µM
N#Cc1ccc(NC(=O)Cn2nc(N3CCC4(CCCCC4)C3)ccc2=O)cc1 [Example 31] | 220% | –
N#Cc1ccc(NC(=O)Cn2nc(N3CCC4(CC3)CC(F)(F)C4)ccc2=O)cc1 [Example 32] | 60% | –
N#Cc1ccc(NC(=O)Cn2nc(N3CCCC4(CCC4)C3)ccc2=O)cc1 [Example 33] | 220% | –
N#Cc1ccc(NC(=O)Cn2nc(N3CCC4(CCC4)C3)ccc2=O)cc1 [Example 34] | 311% | –
Cc1c(N2CCC(C)CC2)nn(CC(=O)Nc2ccc(C#N)cc2)c(=O)c1C [Example 35] | 301% | –
CC1CCN(c2nn(CC(=O)Nc3ccc(C#N)cc3)c(=O)c3c2CCCC3)CC1 [Example 36] | 312% | –
N#Cc1ccc(NC(=O)Cn2nc(C3=CCC(F)(F)CC3)ccc2=O)cc1 [Example 37, N-(4-Cyanophenyl)-2-[3-(4,4-difluorocyclohex-1-en-1-yl)-6-oxopyridazin-1(6H)-yl]acetamide] | – | 93%
CC1(C)CCC(c2ccc(=O)n(CC(=O)Nc3ccc(C#N)cc3)n2)CC1 [Example 38, N-(4-Cyanophenyl)-2-[3-(4,4-dimethylcyclohexyl)-6-oxopyridazin-1(6H)-yl]acetamide] | – | 174%
N#Cc1ccc(NC(=O)Cn2nc(C3=CCCCC3)ccc2=O)cc1 [Example 39] | 125% | –
N#Cc1ccc(NC(=O)Cn2nc(C3CCCCC3)ccc2=O)cc1 [Example 40] | 20% | –
CC1CC=C(c2ccc(=O)n(CC(=O)Nc3ccc(C#N)cc3)n2)CC1 (stereo not shown) [Example 41] | 324% | –
CC1(C)CC=C(c2ccc(=O)n(CC(=O)Nc3ccc(C#N)cc3)n2)CC1 [Example 42] | 216% | –
CC1CCC(c2ccc(=O)n(CC(=O)Nc3ccc(C#N)cc3)n2)CC1 (stereo not shown) [Example 43] | 174% | –
CC1CCC(c2ccc(=O)n(CC(=O)Nc3ccc(C#N)cc3)n2)CC1 (stereo not shown) [Example 44] | 59% | –
CC1(C)CCC=C(c2ccc(=O)n(CC(=O)Nc3ccc(C#N)cc3)n2)C1 [Example 45] | 202% | –
